Data: patent publication US12201599B2, “Compositions and methods for inhibiting blood cancer cell growth” (University of New Brunswick, priority 2017, dated 2025)

Assays:
Cyclin D3 = assay: Immunoblot of cyclin D3 protein levels in KMM1 cells; type: cell-based, human; conditions: 48 hours; for effect on cyclin D3 levels: KMM1, 1, 5 and 25 μM; for cyclin D3 protein levels in comparison with CAPE: KMM1, 25 μM
[1] = system: normal human bone marrow mononuclear cells; assay: Cell viability of normal mononuclear cells after 48 hr, Prestoblue cell viability assay; type: cell-based; conditions: for Normal Bone Marrow Mononuclear Cell Viability (%) Average: 48 hr; for inhibition of cell growth of normal human bone marrow cells (in words): 1, 10, 25, 50 μM, 48 hrs
Text: Cell Viability of Normal Mononuclear Cells after 48 hr CAPE and GL8 Treatment, Determined by Prestoblue Cell Viability Assay.

Bob-1 = assay: Immunoblot of Bob-1 protein levels in KMM1 cells; type: cell-based, human; conditions: KMM1, 25 μM, 48 hours
OCT2 = assay: Immunoblot of OCT2 protein levels in KMM1 cells; type: cell-based, human; conditions: KMM1, 25 μM, 48 hours
IRF4 [2] = assay: Immunoblot of IRF4 protein expression in KMM1 cells
Text: (§1) Total protein extract was obtained from KMM1 and KMS-11 cells treated with CAPE and its closely related analogues and concentration of proteins determined by the Bicinchoninic acid assay (BCA) method. Protein samples were then fractionated by sodium dodecyl sulfate polyacrylamide gel electrophoresis (SDS PAGE) and transferred electrophoretically to a polyvinylidene (PVDF) membrane. Blots were then blocked with 5% nonfat dry milk in tris(hydroxymethyl)aminomethane-buffered saline-tween (TBS-T) for 1 hour and then incubated overnight with goat polyclonal anti-IRF4 antibody; rabbit polyclonal anti-OCT2 antibody, rabbit polyclonal anti-Bob1 antibody (Santa Cruz Biotechnology, Santa Cruz, CA); mouse polyclonal anti-Cyclin D3 (Cell Signaling Technology, Whitby, ON) and mouse monoclonal anti-beta tubulin antibody (Abcam, Cambridge, MA). Detection of protein in PVDF membrane was performed using the chemiluminescence kit (Bio-Rad Laboratories, Hercules, CA).
KMM1 cells were treated with 1, 5 and 25 μM of CAPE and its closely related analogues for 48 hours, cells were then harvested and proteins were extracted. 15 μg protein lysates were separated on a 4-20% gradient gel and then transferred to the PVDF membrane. The membrane was probed for IRF4 protein expression using affinity purified goat polyclonal antibody. Beta-actin was used as protein loading control.

[3] = system: KMM1 lenalidomide non-responsive myeloma cell line; assay: Combination treatment of lenalidomide and CAPE analogues, KMM1 cell viability after 72 hr; conditions: Homo sapiens
KMM1 myeloma cells = assay: KMM1 myeloma cell growth inhibition, PrestoBlue cell viability assay, 48 hours; type: cell-based, human
Experimental: Human myeloma cell line KMM1 was purchased from the Japanese Collection of Research Bioresources Cell Bank (JCBR, Japan). KMS-11 cells were a kind gift from Dr. David Hoskin's Laboratory, […], Canada. Myeloma cells were grown in RPMI-1640 media (Sigma Aldrich, USA) supplemented with 5% heat inactivated FBS (Gibco), […] L-glutamine (Gibco), 5 mM HEPES and 1% Penstrep (Sigma Aldrich, USA) in a 5% CO2 incubator at 37° C. Cell lines were tested regularly for mycoplasma and kept free of contamination. All other chemicals were obtained from Sigma Aldrich, USA. Myeloma cells were seeded in 96 well plates at a density of 10^4 cells/well in appropriate cell media. Following overnight incubation at 37° C., MM cells were treated for 48 hours with varying concentrations of CAPE and its closely related analogues and cell viability was determined by PrestoBlue assay (Invitrogen, ON) according to the manufacturer's protocol. […] Myeloma cell growth inhibition was determined by presto blue cell viability assay (FIG. 2). […] At 5 μM, GL8 inhibited 49.9±2.9%, while CAPE inhibited the growth of 7.3±1% myeloma cells only (P=0.000017); At 10 μM, GL8 inhibited 62.3±2%, while CAPE inhibited the growth of 25.6±5% (P=0.00026).

[4] = system: OCI-Ly3 human lymphoma cell line; assay: Lymphoma cell growth inhibition in lenalidomide-insensitive OCI-Ly3; type: cell-based
Ikaros [5] = assay: Immunoblot of Ikaros in lenalidomide-responsive KMS-11 cells; type: cell-based, human; conditions: KMS-11, 50 μM
Text: as §1

cleaved caspase-3 = assay: Immunoblot of cleaved caspase-3 in KMM1 cells; type: cell-based, human; conditions: KMM1, 25 μM, 48 hr
Experimental: Furthermore, a noticeable increase in cleaved caspase levels in KMM1 cells treated with 25 μM GL8 and MT30 was observed. In comparison with 25 μM CAPE, a 3.2 fold increase in cleaved caspase-3 by MT30 and a 2.9 fold increase by 25 μM of GL8 were observed (FIG. 5).

IRF4 [6] = assay: Immunoblot of IRF4 in lenalidomide-responsive KMS-11 cells; type: cell-based, human; conditions: KMS-11 (lenalidomide responsive)
Text: as §1

Ikaros [7] = assay: Immunoblot of cereblon pathway protein Ikaros in KMM1 cells; type: cell-based, human; conditions: KMM1 (lenalidomide resistant)
Text: as §1

[8] = system: MMIR human myeloma cell line; assay: Cell growth inhibition effect of lenalidomide on MMIR myeloma cells; type: cell-based
[9] = system: MM1S human myeloma cell line; assay: Cell growth inhibition effect of lenalidomide on MM1S myeloma cells; type: cell-based
[10] = KMM-1, read-out: % KMM1 Cell viability, single compound treatment
[11] = KMM-1, 72 h, read-out: % KMM1 Cell viability after 72 hr Lenalidomide Treatment

O=C(O)/C=C/c1ccc(O)c(O)c1 [CA, Caffeic acid]
effect on cyclin D3 levels (Cyclin D3): did not have any effect

O=C(/C=C/c1ccc(O)c(O)c1)OCCc1ccccc1 [CAPE, Caffeic acid (3,4-dihydroxycinnamic acid) phenethyl ester]
Normal Bone Marrow Mononuclear Cell Viability (%) Average ([1]; 1 μM): 99.3% | Normal Bone Marrow Mononuclear Cell Viability (%) Average ([1]; 10 μM): 103.4% | Normal Bone Marrow Mononuclear Cell Viability (%) Average ([1]; 25 μM): 117.7% | Normal Bone Marrow Mononuclear Cell Viability (%) Average ([1]; 50 μM): 122.6% | inhibition of cell growth of normal human bone marrow cells (in words) [1]: neither GL8 nor CAPE at the following concentrations inhibited | Bob-1 protein levels (Bob-1): downregulated | OCT2 protein levels (OCT2): downregulated | decrease of IRF4 protein expression level (IRF4 [2]; KMM1, 25 μM, 48 hours): 26% | viability at 5 µM [3, 10]: 51.8% | viability at 25 µM [3, 10]: 36% | inhibition at 1 µM (KMM1 myeloma cells; Homo sapiens, KMM-1, KMM1, 48 hours, 1 μM, 5 μM and 10 μM): < 30% | inhibition at 25 µM (KMM1 myeloma cells; Homo sapiens, KMM-1, KMM1, 48 hours, 25 μM): 38.7 ± 4% | inhibition at 50 µM (KMM1 myeloma cells; Homo sapiens, KMM-1, KMM1, 48 hours, 50 μM): 59.6 ± 2% | inhibition at 5 µM ([4]; Homo sapiens, OCI-Ly3, 5 μM): 7.3 ± 1% | inhibition at 10 µM ([4]; Homo sapiens, OCI-Ly3, 10 μM): 25.6 ± 5%

O=C(/C=C/c1ccc(O)c(O)c1)NCCc1ccccc1 [D19]
effect on cyclin D3 levels (Cyclin D3): did not have any effect

O=C(/C=C/c1ccc(O)c(O)c1)OCCCc1ccccc1 [GL8]
Normal Bone Marrow Mononuclear Cell Viability (%) Average ([1]; 1 μM): 110.0% | Normal Bone Marrow Mononuclear Cell Viability (%) Average ([1]; 10 μM): 109.2% | Normal Bone Marrow Mononuclear Cell Viability (%) Average ([1]; 25 μM): 110.3% | Normal Bone Marrow Mononuclear Cell Viability (%) Average ([1]; 50 μM): 101.9% | inhibition of cell growth of normal human bone marrow cells (in words) [1]: neither GL8 nor CAPE at the following concentrations inhibited | levels of Ikaros in comparison with 50 μM CAPE (Ikaros [5]): significantly decreased | Bob-1 protein levels (Bob-1): downregulated | cyclin D3 protein levels in comparison with CAPE (Cyclin D3): decreased cyclin D3 protein levels dramatically | effect on cyclin D3 levels (Cyclin D3): decrease cyclin D3 levels in a dose-dependent manner | OCT2 protein levels (OCT2): downregulated | increase in cleaved caspase-3 in comparison with 25 μM CAPE (cleaved caspase-3): 2.9 fold | levels of IRF4 in comparison with 50 μM CAPE (IRF4 [2]; KMM1 (lenalidomide resistant), 50 μM): significantly decreased | decrease of IRF4 protein expression level (IRF4 [2]; KMM1, 25 μM, 48 hours): 62% | levels of IRF4 in comparison with 50 μM CAPE (IRF4 [6]; 50 μM): significantly decreased | levels of Ikaros in comparison with 50 μM CAPE (Ikaros [7]): significantly decreased | myeloma cell growth inhibition (in words) (KMM1 myeloma cells; KMM1): significant myeloma cell growth inhibition | myeloma cell growth inhibition (KMM1 myeloma cells; KMM1, 48 hours, 25 μM): 58.3±13% | myeloma cell growth inhibition (KMM1 myeloma cells; KMM1, 48 hours, 50 μM): 80±5% | lymphoma cell growth inhibition ([4]; OCI-Ly3, 5 μM): 49.9±2.9% | lymphoma cell growth inhibition ([4]; OCI-Ly3, 10 μM): 62.3±2%

Nc1cccc2c1CN(C1CCC(=O)NC1=O)C2=O (stereo not shown) [Lenalidomide]
cell growth inhibition effect (sensitivity in words) [8]: moderately sensitive | effect on IRF4 protein level (IRF4 [2]; KMM1 (lenalidomide resistant), 10 μM, 25 μM and 50 μM): Neither the clinically relevant concentration of 10 μM lenalidomide (Greenberg et al., 2013) nor higher concentrations of lenalidomide (25 μM and 50 μM) tested had any effect | effect on IRF4 protein level (IRF4 [6]; 10 μM, 25 μM and 50 μM): did not alter | viability at 0.0001 µM [3, 11]: 99% | viability at 0.0005 µM [3, 11]: 97% | viability at 0.001 µM [3, 11]: 97% | viability at 0.005 µM [3, 11]: 96% | viability at 0.01 µM [3, 11]: 97% | viability at 0.1 µM [3, 11]: 85% | viability at 1 µM [3, 11]: 80% | viability at 10 µM [3, 11]: 80% | viability at 100 µM [3, 11]: 78% | cell growth inhibition effect (sensitivity in words) (KMM1 myeloma cells; KMM1): insensitive | cell growth inhibition effect (sensitivity in words) ([4]; OCI-Ly3): insensitive | cell growth inhibition effect (sensitivity in words) [9]: sensitive

O=C(/C=C/c1ccc(O)c(O)c1)OCCC1CCCCC1 [MT30]
Bob-1 protein levels (Bob-1): downregulated | cyclin D3 protein levels in comparison with CAPE (Cyclin D3): decreased cyclin D3 protein levels dramatically | OCT2 protein levels (OCT2): downregulated | increase in cleaved caspase-3 in comparison with 25 μM CAPE (cleaved caspase-3): 3.2 fold | IRF4 protein expression (in words) (IRF4 [2]; KMM1, 25 μM, 48 hours): significantly down regulated | myeloma cell growth inhibition (in words) (KMM1 myeloma cells; KMM1): significant myeloma cell growth inhibition
